Reference: patent publication US12600727B2, “Treatment of infections of toxoplasma gondii and closely related parasites” (WASHINGTON UNIVERSITY, priority 2018, dated 2026)
Read-outs that look alike come from different tables or passages of the source.

Assays:
[1] = tested on: Toxoplasma gondii tachyzoites (ME49-FLUC, type 2); assay: T. gondii ME49-FLUC tachyzoite growth inhibition in HFF, luciferase assay; assay type: cell-based; conditions: T. gondii ME49-FLUC (type 2) tachyzoites in HFF
Protocol: Toxoplasma gondii tachyzoites (ME49-FLUC, type 2) (27) were serially passaged in human foreskin fibroblasts (HFF) cultured in complete DMEM medium (DMEM supplemented with 10% fetal bovine serum (FBS), glutamine (10 mM) and gentamycin (10 μg/mL)). For each assay described, infected monolayers were scraped, needle passed (23 ga), and parasites were separated from host cell debris using a three (3) micron pore polycarbonate filter. HeLa cells were cultured in MEM media that contained 10% FBS, 4 mM L-glutamine and 10 mM HEPES solution. Cell culture and assays were conducted using a 37° C. incubator with 5% CO2. Cell cultures were negative for mycoplasma, as determined using the e-Myco plus kit (Intron Biotechnology).
White, clear bottom 96-well assay plates were set up as described above with the following modifications. Only the inner 60 wells were used for the assay in order to reduce variability that results from evaporation during incubation. Dilution of compound stock is as described above, with all wells containing a final concentration of 0.1% DMSO. DMSO (vehicle control) and pyrimethamine (2.5 μM, positive control) were included in the outside wells of all plates as controls. Liquid handling (serial dilutions, compound dilutions, cell feeding, plate-to-plate transfers, etc.) utilized a Dual Pod Biomek FX. Luciferase assays were performed using the integrated and automated platform (Beckman Coulter). The SAMI EX software was used to design and execute the screening assay and enabled efficient and uniform assay execution across all the assay plates.

[2] = tested on: Neospora caninum parasites (NC-1 strain); assay: N. caninum (NC-1, lac-Z) growth inhibition in HFF, β-Gal assay; assay type: cell-based; conditions: 72 h
Protocol: Neospora caninum parasites (NC-1 strain) expressing a lac-Z transgene (1) were serially passaged as tachyzoites in human foreskin fibroblasts cultured in DMEM supplemented with 10% fetal bovine serum (FBS), glutamine (10 mM) and gentamycin (10 μg/mL). Mature cultures were scraped, syringe passed using a 25 g needle to release parasites, filtered through a 3 micron polycarbonate filter to remove host cell debris and counted prior to each assay. All cultures were maintained in a 37° C. incubator with 5% CO2 and were verified mycoplasma free using the e-Myco plus Mycoplasma PCR detection kit (Boca Scientific).
Compounds were prepared as 10 mM stock in 100% DMSO. Pyrimethamine (positive control) and DMSO were included as controls in all plates and all replicates. The EC50 values were determined using a 10-point dose response curve using a 2-fold dilution series from 5.0 μM to 0.01 μM across the plate. Experiments were conducted in 96-well plates containing confluent HFF cells. Each assay plate was inoculated with 1×10^3 parasites (100 μL) containing 100 μL of 2× compound and incubated for 72 h prior to preparation for the j-Gal assay as described in Seeber, F. et al., Gene 169 (1996): 39-45, hereby incorporated by reference in its entirety and particularly in relation to the β-Gal assay protocol. Briefly, culture medium was replaced, wells rinsed with 200 μL of PBS followed by incubation with 50 μL of lysis buffer (100 mM HEPES, 1 mM MgSO4, 1% Triton X-100, 5 mM DTT) for 10 min at 50° C.
EC50 values determined from 10-point dose response curve (5 μM-0.01 μM) and presented as the average of three biological replicates. Linear regression and dose response inhibition (log ([compound]) vs normalized response-variable slope) were performed with Prism 8 for Mac (Graphpad Software, Inc.) and both the fits and data are shown in FIG. 1. Values represent the average of three biological replicates each with two internal replicates and are plotted as mean±S.E.M.

[3] = N. caninum NC-1 lac-Z, 10-point dose response 5 μM-0.01 μM, average of three biological replicates, read-out: EC50

SMILES | EC50 [1] [nM] | EC50 [2, 3] [nM] | EC50 [2] [nM]
COc1ccc(NC(=O)N2CCCCCN3[C@H](CO)[C@H](c4ccc(C#Cc5ccccc5)cc4)[C@@H]3C2)cc1 [Compound 20, (9R,10R,11S)-11-(hydroxymethyl)-N-(4-methoxyphenyl)-10-(4-(phenylethynyl)phenyl)-1,7-diazabicyclo[7.2.0]undecane-7-carboxamide] | 169 | 157 | 
COc1ccc(NC(=O)N2CCCCN3[C@H](CN4CCN(C)CC4)[C@H](c4ccc(C#Cc5ccccc5)cc4)[C@@H]3C2)cc1 [Compound 1, (8R,9S,10S)-N-(4-methoxyphenyl)-10-((4-methylpiperazin-1-yl)methyl)-9-(4-(phenylethynyl)phenyl)-1,6-diazabicyclo[6.2.0]decane-6-carboxamide] | 425 |  | 
COC[C@@H]1[C@H](c2ccc(C#Cc3ccccc3)cc2)[C@@H]2CN(C(=O)Nc3ccc(OC)cc3)CCCCN12 [Compound 9, (8R,9R,10S)-10-(methoxymethyl)-N-(4-methoxyphenyl)-9-(4-(phenylethynyl)phenyl)-1,6-diazabicyclo[6.2.0]decane-6-carboxamide] | 50.4 |  | 
COc1ccc(NC(=O)N2CCCCN3[C@H](CO)[C@H](c4ccc(C#Cc5ccccc5)cc4)[C@]3(CO)C2)cc1 [Compound 11, (8R,9S,10S)-8,10-bis(hydroxymethyl)-N-(4-methoxyphenyl)-9-(4-(phenylethynyl)phenyl)-1,6-diazabicyclo[6.2.0]decane-6-carboxamide] | 1690 |  | 
COc1ccc(NC(=O)N2CCCCN3[C@H](CO)[C@H](c4ccc(C#CC5CC5)cc4)[C@@H]3C2)cc1 [Compound 7, (8R,9R,10S)-9-(4-(cyclopropylethynyl)phenyl)-10-(hydroxymethyl)-N-(4-methoxyphenyl)-1,6-diazabicyclo[6.2.0]decane-6-carboxamide] | 1610 |  | 
COc1ccc(NC(=O)N2CCCCN3[C@H](CO)[C@H](c4ccc(C#Cc5ccccc5)cc4)[C@@H]3C2)cc1 [Compound 18, (8R,9R,10S)-10-(hydroxymethyl)-N-(4-methoxyphenyl)-9-(4-(phenylethynyl)phenyl)-1,6-diazabicyclo[6.2.0]decane-6-carboxamide] | 28.9 |  | 
OC[C@@H]1[C@H](c2ccc(C#Cc3ccccc3)cc2)[C@@H]2CN(c3nc4ccccc4s3)CCCCN12 [Compound 19, ((8R,9R,10S)-6-(benzo[d]thiazol-2-yl)-9-(4-(phenylethynyl)phenyl)-1,6-diazabicyclo[6.2.0]decan-10-yl)methanol] | 3940 |  | 
COc1ccc(NC(=O)N2CCCCN3[C@@H](CO)[C@H](c4ccc(C#Cc5ccccn5)cc4)[C@@H]3C2)cc1 [Compound 13, (8R,9R,10R)-10-(hydroxymethyl)-N-(4-methoxyphenyl)-9-(4-(pyridin-2-ylethynyl)phenyl)-1,6-diazabicyclo[6.2.0]decane-6-carboxamide] | 646 |  | 
O=C(NC1CCC1)N1CCCCN2[C@H](CO)[C@H](c3ccc(C#Cc4ccccc4)cc3)[C@@H]2C1 [Compound 3, (8R,9R,10S)-N-cyclobutyl-10-(hydroxymethyl)-9-(4-(phenylethynyl)phenyl)-1,6-diazabicyclo[6.2.0]decane-6-carboxamide] | 2580 |  | 
COc1ccc(NC(=O)N2CCCCN3[C@H](CO)[C@H](c4ccc(C#Cc5ccccc5C#N)cc4)[C@@H]3C2)cc1 [Compound 12, (8R,9R,10S)-9-(4-((2-cyanophenyl)ethynyl)phenyl)-10-(hydroxymethyl)-N-(4-methoxyphenyl)-1,6-diazabicyclo[6.2.0]decane-6-carboxamide] | 213 |  | 
COc1ccc(NC(=O)N2CCCCN3[C@H](CN(C)CCF)[C@H](c4ccc(C#Cc5ccccc5)cc4)[C@@H]3C2)cc1 [Compound 5, (8R,9S,10S)-10-(((2-fluoroethyl)(methyl)amino)methyl)-N-(4-methoxyphenyl)-9-(4-(phenylethynyl)phenyl)-1,6-diazabicyclo[6.2.0]decane-6-carboxamide] | 89.5 |  | 
COc1ccc(NC(=O)N2CCCCN3[C@H](CN(C)S(C)(=O)=O)[C@H](c4ccc(C#Cc5ccccc5)cc4)[C@@H]3C2)cc1 [Compound 4, (8R,9R,10S)-N-(4-methoxyphenyl)-10-((N-methylmethylsulfonamido)methyl)-9-(4-(phenylethynyl)phenyl)-1,6-diazabicyclo[6.2.0]decane-6-carboxamide] | 34.8 |  | 
CCc1nc(N)nc(N)c1-c1ccc(Cl)cc1 [Pyrimethamine (Pyr), Pyrimethamine, reference compound] |  |  | 263
CN(C[C@@H]1[C@H](c2ccc(C#Cc3ccccc3)cc2)[C@@H]2CN(C(=O)Nc3ccc(OC4CC4)cc3)CCCCN12)S(C)(=O)=O [Compound 14, (8R,9R,10S)-N-(4-cyclopropoxyphenyl)-10-((N-methylmethylsulfonamido)methyl)-9-(4-(phenylethynyl)phenyl)-1,6-diazabicyclo[6.2.0]decane-6-carboxamide] | 18.5 | 37 | 
COc1ccc(NC(=O)N2CCCCN3C[C@H](c4ccc(C#Cc5ccccc5)cc4)[C@@H]3C2)cc1 [Compound 16] | 77 | 193 | 
COc1ccc(NC(=O)N2CCCN3[C@H](CO)[C@H](c4ccc(C#Cc5ccccc5)cc4)[C@@H]3C2)cc1 [Compound 21, (7R,8R,9S)-9-(hydroxymethyl)-N-(4-methoxyphenyl)-8-(4-(phenylethynyl)phenyl)-1,5-diazabicyclo[5.2.0]nonane-5-carboxamide] | 1750 |  | 
COc1ccc(NC(=O)N2CCCCN3[C@H](COCCC(=O)O)[C@H](c4ccc(C#Cc5ccccc5)cc4)[C@@H]3C2)cc1 [Compound 2, 3-(((8R,9R,10S)-6-((4-methoxyphenyl)carbamoyl)-9-(4-(phenylethynyl)phenyl)-1,6-diazabicyclo[6.2.0]decan-10-yl)methoxy)propanoic acid] | 64.3 |  | 
COc1ccc(NC(=O)N2CCCCN3[C@@H](C2)[C@@H](c2ccc(C#Cc4ccccc4)cc2)[C@@H]3CN(C)S(C)(=O)=O)cc1 [Compound 6, (8R,9R,10R)-N-(4-methoxyphenyl)-10-((N-methylmethylsulfonamido)methyl)-9-(4-(phenylethynyl)phenyl)-1,6-diazabicyclo[6.2.0]decane-6-carboxamide] | 40 | 60 | 
COc1ccc(NC(=O)N2C[C@H](O)[C@H](O)CN3[C@H](CN(C)C)[C@H](c4ccc(C#Cc5ccccc5)cc4)[C@@H]3C2)cc1 [Compound 8, (3R,4S,8R,9S,10S)-10-((dimethylamino)methyl)-3,4-dihydroxy-N-(4-methoxyphenyl)-9-(4-(phenylethynyl)phenyl)-1,6-diazabicyclo[6.2.0]decane-6-carboxamide] | 39.3 | 30 | 
O=C(Nc1cccc(F)c1)N1CCCCN2[C@H](CO)[C@H](c3ccc(C#Cc4cccnc4)cc3)[C@@H]2C1 [Compound 10, (8R,9R,10S)-N-(3-fluorophenyl)-10-(hydroxymethyl)-9-(4-(pyridin-3-ylethynyl)phenyl)-1,6-diazabicyclo[6.2.0]decane-6-carboxamide] | 493 |  | 
COc1ccc(NC(=O)N2CCCCN3[C@H](CN4CCC4)[C@H](c4ccc(C#Cc5ccccc5)cc4)[C@@H]3C2)cc1 [Compound 17, (8R,9S,10S)-10-(azetidin-1-ylmethyl)-N-(4-methoxyphenyl)-9-(4-(phenylethynyl)phenyl)-1,6-diazabicyclo[6.2.0]decane-6-carboxamide] | 442 |  | 
